Test results reported in patent US7662842B2, “Thiazolidinone amides, thiazolidine carboxylic acid amides, and serine amides, including polyamine conjugates thereof, as selective anti-cancer agents” (Ohio State Univesity Research Foundation, priority 2003, dated 2010).

What was measured:
[1] = test system: TSU-Pr1 human prostate cancer cells; experiment: SRB cytotoxicity assay, TSU-Pr1; assay type: cell-based; conditions: Homo sapiens, TSU-Pr1, 96 h exposure, prostate cancer cell line
Experimental: (§1) Dr. Mitchell Steiner at University of Tennessee Health Science Center, kindly provided PPC-1 and TSU-Pr1 cells.
(§2) For in vitro cytotoxicity screening, 1000 to 5000 cells were plated into each well of 96-well plates depending on growth rate, and exposed to different concentrations of a test compound for 96 h in three to five replicates. All the compounds were dissolved in dimethyl sulfoxide at 5 to 20 mM, and diluted to desired concentrations in complete culture medium. Cell numbers at the end of the drug treatment were measured by the SRB assay (Gududuru et al., “Synthesis and Biological Evaluation of Novel Cytotoxic Phospholipids for Prostate Cancer,” Bioorg. Med. Chem. Lett. 14:4919-4923 (2004); Rubinstein et al., “Comparison of in vitro Anticancer-Drug-Screening Data Generated with a Tetrazolium Assay Versus a Protein Assay Against a Diverse Panel of Human Tumor Cell Lines,” J. Natl. Cancer Inst. 82:1113-1118 (1990), each of which is hereby incorporated by reference in its entirety). Briefly, the cells were fixed with 10% of trichloroacetic acid, stained with 0.4% SRB, and the absorbances at 540 nm was measured using a plate reader (DYNEX Technologies, Chantilly, Va.). […] A sandwich ELISA (Roche, Mannheim, Germany) utilizing monoclonal antibodies specific for DNA and histones was used to quantify degree of apoptosis induced by the analogs after 72 h exposure. This assay measures DNA-histone complexes (mono- and oligonucleosomes) released into cytoplasm from the nucleus during apoptosis.

[2] = test system: CaOv-3 human ovarian cancer cell line; experiment: SRB cytotoxicity assay, CaOv-3; assay type: cell-based
Experimental: (§3) For in vitro cytotoxicity screening, 1000 to 5000 cells were plated into each well of 96-well plates depending on growth rate, and exposed to different concentrations of a test compound for 96 h in three to five replicates. All the compounds were dissolved in dimethyl sulfoxide at 5 to 20 mM, and diluted to desired concentrations in complete culture medium. Cell numbers at the end of the drug treatment were measured by the SRB assay (Gududuru et al., “Synthesis and Biological Evaluation of Novel Cytotoxic Phospholipids for Prostate Cancer,” Bioorg. Med. Chem. Lett. 14:4919-4923 (2004); Rubinstein et al., “Comparison of in vitro Anticancer-Drug-Screening Data Generated with a Tetrazolium Assay Versus a Protein Assay Against a Diverse Panel of Human Tumor Cell Lines,” J. Natl. Cancer Inst. 82:1113-1118 (1990), each of which is hereby incorporated by reference in its entirety). Briefly, the cells were fixed with 10% of trichloroacetic acid, stained with 0.4% SRB, and the absorbances at 540 nm was measured using a plate reader (DYNEX Technologies, Chantilly, Va.). […] A sandwich ELISA (Roche, Mannheim, Germany) utilizing monoclonal antibodies specific for DNA and histones was used to quantify degree of apoptosis induced by the analogs after 72 h exposure. This assay measures DNA-histone complexes (mono- and oligonucleosomes) released into cytoplasm from the nucleus during apoptosis. RH7777 cells were employed because of nonspecific cytotoxicity of compound 4 in receptor-negative cells as well as receptor-positive prostate cancer cells.
(§4) In vitro cytotoxicity assay was performed by the same sulforhodamine B (SRB) assay (described above). The compounds shown in Table 8 below where tested for activity against the breast cancer and ovarian cancer cell lines.

[3] = test system: OVCAR-3 human ovarian cancer cell line; experiment: SRB cytotoxicity assay, OVCAR-3; assay type: cell-based
Experimental: as §3, §4

[4] = test system: DU-145 human prostate cancer cells; experiment: SRB cytotoxicity assay, DU-145; assay type: cell-based; conditions: Homo sapiens, DU-145, read-out: IC50 DU-145, 96 h exposure, prostate cancer cell line
Experimental: as §2

[5] = test system: PPC-1 human prostate cancer cells; experiment: SRB cytotoxicity assay, PPC-1; assay type: cell-based; conditions: Homo sapiens, PPC-1, 96 h exposure, prostate cancer cell line
Experimental: as §1, §2

[6] = test system: LNCaP human prostate cancer cells; experiment: SRB cytotoxicity assay, LNCaP; assay type: cell-based; conditions: Homo sapiens, LNCaP, 96 h exposure, prostate cancer cell line
Experimental: as §2

[7] = test system: RH7777 rat hepatoma cells; experiment: SRB cytotoxicity assay, RH7777 control cell line; assay type: cell-based; conditions: for IC50: Rattus norvegicus, RH7777, SRB assay, 96 h exposure, control cell line
Experimental: as §2

[8] = test system: SKOv-3 human ovarian cancer cell line; experiment: SRB cytotoxicity assay, SKOv-3; assay type: cell-based; conditions: SK-OV-3
Experimental: as §3, §4

[9] = test system: PC-3 human prostate cancer cells; experiment: SRB cytotoxicity assay, PC-3; assay type: cell-based; conditions: Homo sapiens, 96 h exposure, prostate cancer cell line
Experimental: as §2

SKMEL-188 melanoma cells = experiment: Sulforhodamine B assay in melanoma cells, SKMEL-188; assay type: cell-based; conditions: SK-MEL-188, 48 h, SRB assay, 48 h incubation; melanoma cell line
Experimental: (§5) SKMEL-188 cells were cultured in Ham's F10 medium (Gibco Invitrogen, Inc., Grand Island, N.Y.) plus 5% fetal bovine serum (Cellgro Mediatech, Inc., Herndon, Va.) and 1% antibiotic/antimycotic mixture (Sigma-Aldrich, Inc., St. Louis, Mo.). WM-164 cells (gift of Dr. Meenhard Herlyn, Wistar Inst., Philadelphia, Pa.) and human dermal fibroblasts (Cascade Biologics, Inc., Portland, Oreg.) were cultured in DMEM medium (Cellgro Mediatech, Inc.) supplemented with 5% fetal bovine serum, 1% antibiotic.antimycotic mixture and bovine insulin ([…], Sigma-Aldrich, Inc.). Human dermal fibroblasts were used as a control to examine the effects of compounds on stromal environment. Thus, the effect of the various compounds on melanoma cells versus fibroblasts would document their potential selectivity.
(§6) Sulforhodamine B Assay: Cells were seeded into 96-well plates at 5000 cells/well. After 12 hours, media were changed and serial dilutions of compounds were added. Cells were incubated with each compound for 48 hours. Fresh media containing the test compound were changed ever 24 hours. Thereafter, total cell protein corresponding to cell numbers (both viable and non-viable cells) were measured using the sulforhodamine B (SRB) assay according to manufacturer's protocol (Sigma-Aldrich, Inc.) (Rubinstein et al., “Comparison of in vitro Anticancer Drug-screening Data Generated with a Tetrazolium Assay Versus a Protein Assay Against a Diverse Panel of Human Tumor Cell Lines,” J. Natl. Cancer Inst. 82:1113-1118 (1990); Dothager et al., “Synthesis and Identification of Small Molecules that Potently Induce Apoptosis in Melanoma Cells Through GI Cell Cycle Arrest,” J. Am. Chem. Soc. 127:8686-8696 (2005), each of which is hereby incorporated by reference in its entirety). Briefly, cells were fixed with trichloracetic acid, washed and incubated with sulforhodamine B for 30 minutes. After another wash, dye incorporated into the cells was solubilized and measured using a plate reader at 565 nm.
(§7) Statistical Analysis: Data is presented as mean±SEM (n=6-8). […] Statistical analyses were performed with Student's t-test (*p<0.05; **p<0.005).
(§8) DTIC and Taxol were assayed in the same way for comparison and served as internal quality controls in the different batches of assay. For comparison, the activities of 5R and 5S were measured.

human dermal fibroblasts = experiment: Sulforhodamine B assay, fibroblast control cells; assay type: cell-based; conditions: Homo sapiens, Fibroblast, 48 h, SRB assay, 48 h incubation
Experimental: as §5, §6, §7, §8

LNCaP cells = experiment: Apoptosis sandwich ELISA (DNA-histone complex), LNCaP; assay type: cell-based, human
Experimental: as §3
(§9) From the LPL receptor mRNA expression studies (Table 2), it was evident that these cell lines serve as an excellent model system to explore the effects of LPL receptor. Given the structural similarity of SAPs to ceramide (and the known ability of ceramide to induce apoptosis), it was then determined whether the antiproliferative effects of thiazolidine analogs were mediated via apoptotic events. The ability of the analogs to induce apoptosis in LNCaP, PC-3, and RH7777 cells was examined using a quantitative sandwich ELISA that measures DNA-histone complex released during apoptosis. The enrichment factor calculated (as ratio of OD405 in treated and un-treated cells) provides a quantitative assessment of the degree of apoptosis induced. Initially, only two compounds (4 & 5) were used for this study. Apoptotic activity of analog (compound 4) was selective in prostate cancer cells despite nonselective cytotoxicity in RH7777 negative control cells (see Table 5 below). Analog compound 5 induced apoptosis in PC-3 and LNCaP cells, but to a lesser extent in PC-3 cells perhaps due to lower potency in this cell line.

WM-164 cells = experiment: Sulforhodamine B assay in melanoma cells, WM-164; assay type: cell-based; conditions: Homo sapiens, WM164, read-out: IC50 WM-164; SRB assay, 48 h incubation; melanoma cell line
Experimental: as §5, §6, §7, §8

PC-3 cells = experiment: Apoptosis sandwich ELISA (DNA-histone complex), PC-3; assay type: cell-based, human
Experimental: as §3, §9

[10] = test system: SKMEL-188 and WM-164 cell lines; experiment: SRB assay, statements on both melanoma cell lines; assay type: cell-based
Experimental: Louis, Mo.). WM-164 cells (gift of Dr. Meenhard Herlyn, Wistar Inst., Philadelphia, Pa.) and human dermal fibroblasts (Cascade Biologics, Inc., Portland, Oreg.) were cultured in DMEM medium (Cellgro Mediatech, Inc.) supplemented with 5% fetal bovine serum, 1% antibiotic.antimycotic mixture and bovine insulin ([…], Sigma-Aldrich, Inc.). Human dermal fibroblasts were used as a control to examine the effects of compounds on stromal environment. Thus, the effect of the various compounds on melanoma cells versus fibroblasts would document their potential selectivity. Sulforhodamine B Assay: Cells were seeded into 96-well plates at 5000 cells/well. After 12 hours, media were changed and serial dilutions of compounds were added. Cells were incubated with each compound for 48 hours. Fresh media containing the test compound were changed ever 24 hours. Thereafter, total cell protein corresponding to cell numbers (both viable and non-viable cells) were measured using the sulforhodamine B (SRB) assay according to manufacturer's protocol (Sigma-Aldrich, Inc.) (Rubinstein et al., “Comparison of in vitro Anticancer Drug-screening Data Generated with a Tetrazolium Assay Versus a Protein Assay Against a Diverse Panel of Human Tumor Cell Lines,” J. Natl. Cancer Inst. 82:1113-1118 (1990); Dothager et al., “Synthesis and Identification of Small Molecules that Potently Induce Apoptosis in Melanoma Cells Through GI Cell Cycle Arrest,” J. Am. Chem. Soc. 127:8686-8696 (2005), each of which is hereby incorporated by reference in its entirety). Briefly, cells were fixed with trichloracetic acid, washed and incubated with sulforhodamine B for 30 minutes. After another wash, dye incorporated into the cells was solubilized and measured using a plate reader at 565 nm. Statistical Analysis: Data is presented as mean±SEM (n=6-8). […] Statistical analyses were performed with Student's t-test (*p<0.05; **p<0.005). […] DTIC and Taxol were assayed in the same way for comparison and served as internal quality controls in the different batches of assay. For comparison, the activities of 5R and 5S were measured.

SMILES | IC50 [1] [µM] | IC50 [2] [µM] | IC50 [3] [µM] | IC50 [4] [µM] | IC50 [5] [µM] | IC50 [6] [µM] | IC50 [7] [µM] | IC50 [8] [µM] | IC50 [9] [µM] | IC50 (SKMEL-188 melanoma cells) [µM] | IC50 (human dermal fibroblasts) [µM] | IC50 (WM-164 cells) [µM] | other results
CCCCCCCCCCCCCCCCCCNC(=O)[C@@H]1CSC(c2cccc(O)c2)N1 (mixture of isomers) [Compound 14, (2RS, 4R)-2-(3-Hydroxy-phenyl)-thiazolidine-4-carboxylic acid octadecylamide] | 4 | 18.3 | 8.1 | 5.7 | 1.2 | 1.7 | 31 | 11 | 6.7 |  |  |  | melting point: 50 °C
CCCCCCCCCCCCCCCCCCNC(=O)[C@H]1CSC(c2ccccc2)N1 (stereo partly drawn) [5(S), (4S)—N-octadecyl-2-phenylthiazolidine-4-carboxamide] |  |  |  |  |  |  |  |  |  | 24 | 27.5 | 18.1 | Apoptosis enrichment factor (ratio of OD405 in treated and un-treated cells), LNCaP (LNCaP cells; 2 μM for 72 h): 3.1; Apoptosis enrichment factor (ratio of OD405 in treated and un-treated cells), LNCaP (LNCaP cells; 5 μM for 72 h): 5.4; Apoptosis enrichment factor (ratio of OD405 in treated and un-treated cells), LNCaP (LNCaP cells; 10 μM for 72 h): 25.8; Apoptosis enrichment factor (ratio of OD405 in treated and un-treated cells), LNCaP (LNCaP cells; 20 μM for 72 h): 46.8; Induction of apoptosis in LNCaP and PC-3 cells (LNCaP cells; LNCaP and PC-3 cells, lesser extent in PC-3): significantly induced apoptosis; Apoptosis enrichment factor (ratio of OD405 in treated and un-treated cells), PC-3 (PC-3 cells; 2 μM for 72 h): 1.1; Apoptosis enrichment factor (ratio of OD405 in treated and un-treated cells), PC-3 (PC-3 cells; 5 μM for 72 h): 1.2; Apoptosis enrichment factor (ratio of OD405 in treated and un-treated cells), PC-3 (PC-3 cells; 10 μM for 72 h): 1.4; Apoptosis enrichment factor (ratio of OD405 in treated and un-treated cells), PC-3 (PC-3 cells; 20 μM for 72 h): 2.7
CCCCCCCCCCCCCCCCCCNC(=O)C1CSC(c2ccoc2)N1 (stereo not drawn) [Compound 12, 2-(furan-3-yl)-N-octadecylthiazolidine-4-carboxamide] | 4.2 | 7.7 | 2.3 | 6.6 | 1.1 | 1.7 | 10.4 | 5.4 | 8.1 |  |  |  | Fold less selective against RH7777 cell line than compound 5 ([7]; relative to compound 5): 3 fold
CN(C)/N=N/c1[nH]cnc1C(N)=O [DTIC, dacarbazine, reference compound] |  |  |  |  |  |  |  |  |  | > 100 |  | > 100 | IC50 ([10]; 48 h, read-out: IC50 against both melanoma cell lines): > 100 µM
CC(=O)O[C@H]1C(=O)[C@@]2(C)[C@H]([C@H](OC(=O)c3ccccc3)[C@]3(O)C[C@H](OC(=O)[C@H](O)[C@@H](NC(=O)c4ccccc4)c4ccccc4)C(C)=C1C3(C)C)[C@]1(OC(C)=O)CO[C@@H]1C[C@@H]2O [Taxol, reference compound] |  |  |  |  |  |  |  |  |  | 3.8 | > 10 | 6.1 | Killing of melanoma cells (cytostatic versus cytotoxic) ([10]; higher concentrations): not effective in killing the cells
